Laboratory results as given in USRE48461E1, “Modulation of androgen receptor expression” (Ionis Pharmaceuticals, Inc., priority 2012, dated 2021).

How the values were obtained:
Format in all cases: cell-based, human
TMPRSS2 mRNA [1] = assay: TMPRSS2 expression in 22RV1 cells; conditions: RNAiMax, 48 hrs
Experimental: (§1) Cells were plated at 1,000 cells per well. […] After an incubation period of 48 hrs, RNA levels of full length AR, the V7 variant, PSA and TMPRSS2 were measured.
(§2) After an incubation period of 48 hrs, RNA levels of full length AR, the V7 variant, PSA and TMPRSS2 were measured.
(§3) Cells were plated at 2,000 cells per well and cultured in CSS media for 16 hours. […] After 4 hrs, 1 nM DHT was added. […] After an incubation period of 48 hrs, RNA levels of AR, AR V7 variant, PSA and TMPRSS2 were measured.

full length AR mRNA = assay: Full-length AR RNA in 22RV1 cells (complete, CSS+DHT medium); conditions: RNAiMax, 48 hrs
Experimental: as §1, §2, §3

[2] = test system: prostate-specific antigen (PSA) mRNA; assay: PSA mRNA levels in LMR20 cells; conditions: with or without DHT/R1881
Experimental: LMR20 cells were plated at 1,500 cells per well in phenol red-free medium with CSS. […] Results are presented in Tables 43-45 as mRNA levels expressed as a percentage of the baseline values. mRNA levels may be lowered or increased after treatment.

[3] = test system: prostate-specific antigen (PSA) mRNA; assay: Time-course PSA expression in C4-2B cells
Experimental: C4-2B cells were plated at 1,000 cells per well in complete medium. […] ISIS 549148 was included as a negative control. […] After a treatment period of 8 hours, 24 hours, and 48 hours, AR expression was measured with primer probe set hAR-LTS00943. Results are presented in Tables 70-72 as percent expression of AR, relative to non-treated cells.
Expression analysis of prostate-specific antigen (PSA) and TMPRSS2 were also analyzed. Results are presented in Tables 73-75 as percent inhibition of PSA expression and Tables 76-78 as percent inhibition of TMPRSS2 expression, relative to non-treated cells.

LNCaP cells = assay: LNCaP cell proliferation (complete or CSS+DHT medium); conditions: 5 days; for Proliferation (% untreated control) in LNCaP cells cultured in CSS + DHT medium: CSS + 1 nM DHT medium
Experimental: After a treatment period of 5 days in complete medium or CSS+1 nM DHT medium, the proliferative capacity of the cancer cells was measured with using CellTiter 96® AQueous One Solution or CellTiter-Glo® solution Cell Proliferation kit (Promega), following the manufacturer's instructions. […] Treatment with ISIS oligonucleotides in CSS+DHT medium reduced the proliferative capacity to a greater extent than treatment with MVD-3100. The proliferative capacity of cells cultured in CSS medium without DHT is 17% of untreated control levels.

AR mRNA = assay: AR RNA expression in C4-2B cells (complete, CSS+DHT medium; Example 30); conditions: 48 hrs
Experimental: (§4) Cells were plated at 1,000 cells per well. […] ISIS 549148 was included as a negative control. […] After an incubation period of 48 hrs, RNA levels of AR, PSA and TMPRSS2 were measured.
(§5) Cells were plated at 2,000 cells per well and cultured in CSS media with 1 nM DHT. […] ISIS 549148 was included as a negative control. […] After an incubation period of 48 hrs, RNA levels of AR, PSA and TMPRSS2 were measured. In the absence of DHT, AR expression in C4-2 cells was 188%, PSA expression was 43% and TMPRSS2 expression was 27% compared to the untreated control.

TMPRSS2 mRNA [4] = assay: TMPRSS2 expression in C4-2B cells (Example 30); conditions: 48 hrs
Experimental: as §4, §5

Question: What does the source list for “TTGATTTAATGGTTGC [ISIS 560131] (MOE and (S)-cEt gapmer chemistry, further chemistry not given here) [targets intron 1]”?
Answer: Percent inhibition of TMPRSS2 expression (TMPRSS2 mRNA [1]; CSS + DHT medium, 1.34 nM): 39%; Percent inhibition of TMPRSS2 expression (TMPRSS2 mRNA [1]; CSS + DHT medium, 4.0 nM): 50%; Percent inhibition of TMPRSS2 expression (TMPRSS2 mRNA [1]; CSS + DHT medium, 13.4 nM): 59%; Percent inhibition of TMPRSS2 expression (TMPRSS2 mRNA [1]; complete medium, 1.34 nM): 7%; Percent inhibition of TMPRSS2 expression (TMPRSS2 mRNA [1]; complete medium, 4.0 nM): 3%; Percent inhibition of TMPRSS2 expression (TMPRSS2 mRNA [1]; complete medium, 13.4 nM): 19%; Percent inhibition of TMPRSS2 expression (TMPRSS2 mRNA [1]; complete medium, 40 nM): 32%; Percent inhibition of full-length AR (full length AR mRNA; CSS + DHT medium, 1.34 nM): 65%; Percent inhibition of full-length AR (full length AR mRNA; CSS + DHT medium, 4.0 nM): 85%; Percent inhibition of full-length AR (full length AR mRNA; CSS + DHT medium, 13.4 nM): 93%; Percent inhibition of full-length AR (full length AR mRNA; complete medium, 1.34 nM): 7%; Percent inhibition of full-length AR (full length AR mRNA; complete medium, 4.0 nM): 19%; Percent inhibition of full-length AR (full length AR mRNA; complete medium, 13.4 nM): 49%; Percent inhibition of full-length AR (full length AR mRNA; complete medium, 40 nM): 76%; PSA mRNA levels in LMR20 cells [2]: reduced PSA levels and TMPRSS2 more extensively than the LNA gapmer ISIS 554221 or MDV3100; Percent inhibition of PSA expression compared to the control group in 8 hours ([3]; 0.04 μM): 12%; Percent inhibition of PSA expression compared to the control group in 24 hours ([3]; 0.04 μM): 27%; Percent inhibition of PSA expression compared to the control group in 48 hours ([3]; 0.04 μM): 20%; Percent inhibition of PSA expression compared to the control group in 8 hours ([3]; 0.2 μM): 0%; Percent inhibition of PSA expression compared to the control group in 24 hours ([3]; 0.2 μM): 46%; Percent inhibition of PSA expression compared to the control group in 48 hours ([3]; 0.2 μM): 61%; Percent inhibition of PSA expression compared to the control group in 8 hours ([3]; 1 μM): 3%; Percent inhibition of PSA expression compared to the control group in 24 hours ([3]; 1 μM): 56%; Percent inhibition of PSA expression compared to the control group in 48 hours ([3]; 1 μM): 71%; Percent inhibition of PSA expression compared to the control group in 8 hours ([3]; 5.0 μM): 1%; Percent inhibition of PSA expression compared to the control group in 24 hours ([3]; 5.0 μM): 60%; Percent inhibition of PSA expression compared to the control group in 48 hours ([3]; 5.0 μM): 80%; PSA expression ([3]; time course): reduced PSA and TMPRSS2 expression in the cells relative to the control set at the 24 hr and 48 hr time points; Proliferation (% untreated control) in LNCaP cells cultured in CSS + DHT medium (LNCaP cells; 0.04 μM): 97 % untreated control; Proliferation (% untreated control) in LNCaP cells cultured in CSS + DHT medium (LNCaP cells; 0.2 μM): 81 % untreated control; Proliferation (% untreated control) in LNCaP cells cultured in CSS + DHT medium (LNCaP cells; 1 μM): 46 % untreated control; Proliferation (% untreated control) in LNCaP cells cultured in CSS + DHT medium (LNCaP cells; 5.0 μM): 8 % untreated control; proliferation of LNCaP cells (LNCaP cells; complete medium or CSS+1 nM DHT): reduced proliferation of the cells in a dose dependent compared to the control; Proliferation (% untreated control) in LNCaP cells cultured in complete medium (LNCaP cells; 0.04 μM): 96 % untreated control; Proliferation (% untreated control) in LNCaP cells cultured in complete medium (LNCaP cells; 0.2 μM): 70 % untreated control; Proliferation (% untreated control) in LNCaP cells cultured in complete medium (LNCaP cells; 1 μM): 48 % untreated control; Proliferation (% untreated control) in LNCaP cells cultured in complete medium (LNCaP cells; 5.0 μM): 45 % untreated control; Percent expression of AR (AR mRNA; CSS + DHT medium, 0.04 μM): 55%; Percent expression of AR (AR mRNA; CSS + DHT medium, 0.2 μM): 31%; Percent expression of AR (AR mRNA; CSS + DHT medium, 1 μM): 15%; Percent expression of AR (AR mRNA; CSS + DHT medium, 5.0 μM): 13%; Percent expression of AR (AR mRNA; complete medium, 0.04 μM): 34%; Percent expression of AR (AR mRNA; complete medium, 0.2 μM): 15%; Percent expression of AR (AR mRNA; complete medium, 1 μM): 14%; Percent expression of AR (AR mRNA; complete medium, 5.0 μM): 14%; Percent inhibition of TMPRSS2 expression (TMPRSS2 mRNA [4]; CSS + DHT medium, 0.04 μM): 0%; Percent inhibition of TMPRSS2 expression (TMPRSS2 mRNA [4]; CSS + DHT medium, 0.2 μM): 34%; Percent inhibition of TMPRSS2 expression (TMPRSS2 mRNA [4]; CSS + DHT medium, 1 μM): 60%; Percent inhibition of TMPRSS2 expression (TMPRSS2 mRNA [4]; CSS + DHT medium, 5.0 μM): 76%; Percent inhibition of TMPRSS2 expression (TMPRSS2 mRNA [4]; complete medium, 0.04 μM): 46%; Percent inhibition of TMPRSS2 expression (TMPRSS2 mRNA [4]; complete medium, 0.2 μM): 71%; Percent inhibition of TMPRSS2 expression (TMPRSS2 mRNA [4]; complete medium, 1 μM): 72%; Percent inhibition of TMPRSS2 expression (TMPRSS2 mRNA [4]; complete medium, 5.0 μM): 75%
